One assay concerns Escherichia coli. In words: microbe, parasite or virus in culture. To be noted: ATCC 25922, 18 h, ASSAY_TEST Inhibition of Bacterial Growth, detection method Absorption (OD600), MEDIA CAMHB, plate type 384well, NBS, CORNING #3640.
For assay [1], the system named is Pseudomonas aeruginosa. In words: Antibacterial activity against Pseudomonas aeruginosa PAO397 [PAO1 d(mexAB-oprM) d(mexCD-oprJ) d(mexEF-oprN) d(mexJKL) d(mexXY) d(opmH)] (CO-ADD:GN_211); MIC in CAMBH media using NBS plates, by OD(600). In kind it is functional. Conditions: ASSAY_TEST Inhibition of Bacterial Growth, detection method Absorption (OD600), MEDIA CAMHB, plate type 384well, CORNING #3640, time 18 hr.

A further assay has as its system Candida albicans. Nature of the assay: microbe, parasite or virus in culture. To be noted: ATCC 90028, ASSAY_TEST Inhibition of Fungal Growth, detection method Absorption (OD530), plate type 384well, NBS, CORNING #3640.
The next assay concerns HEK293. Nature of the assay: cells. In kind it is functional, Homo sapiens, ATCC CRL1573. Conditions: Homo sapiens, ATCC CRL1573, HEK293; ASSAY_TEST Inhibition of Cell Viability; detection method Resazurin; Fluorescence (ex560/em590); MEDIA DMEM with 10% FBS; plate type 384well; TC; CORNING #3712; time 18 hr; read-out: CC50. (The colour change of resazurin is a common sign of viable cells or microbes.)

In assay [2] the test system is Pseudomonas aeruginosa. Nature of the assay: microbe, parasite or virus in culture. To be noted: ATCC 27853, 18 h, ASSAY_TEST Inhibition of Bacterial Growth, detection method Absorption (OD600), MEDIA CAMHB, plate type 384well, NBS, CORNING #3640.
Description: Antibacterial activity against Pseudomonas aeruginosa ATCC 27853 (CO-ADD:GN_042); MIC in CAMBH media using NBS plates, by OD(600)
The test system of another assay is Klebsiella pneumoniae. In words: microbe, parasite or virus in culture. Conditions: ATCC 700603, 18 h, ASSAY_TEST Inhibition of Bacterial Growth, detection method Absorption (OD600), MEDIA CAMHB, plate type 384well, NBS, CORNING #3640.
The subject of another assay is Acinetobacter baumannii. In words: microbe, parasite or virus in culture. Conditions: ATCC 19606, 18 h, ASSAY_TEST Inhibition of Bacterial Growth, detection method Absorption (OD600), MEDIA CAMHB, plate type 384well, NBS, CORNING #3640.
The next assay relates to Staphylococcus aureus. Nature of the assay: microbe, parasite or virus in culture. Conditions: ATCC 43300, 18 h, ASSAY_TEST Inhibition of Bacterial Growth, detection method Absorption (OD600), MEDIA CAMHB, plate type 384well, NBS, CORNING #3640.

These results are taken from ChEMBL document CHEMBL4513161, “CO-ADD screening of MMV (CH) - Pandemic Response Box” (2021).

Description for Acinetobacter baumannii: Antibacterial activity against Acinetobacter baumannii ATCC 19606 (CO-ADD:GN_034); MIC in CAMBH media using NBS plates, by OD600
Description for Candida albicans: Antifungal activity against Candida albicans ATCC 90028 (CO-ADD:FG_001); MIC in YNB media using NBS plates, by OD630
Description for Cryptococcus neoformans: Antifungal activity against Cryptococcus neoformans H99 ATCC 208821 (CO-ADD:FG_002); MIC in YNB media using NBS plates, by Resazurin OD(600-570)
Description for Escherichia coli: Antibacterial activity against Escherichia coli ATCC 25922 (CO-ADD:GN_001); MIC in CAMBH media using NBS plates, by OD(600)
Description for Klebsiella pneumoniae: Antibacterial activity against Klebsiella pneumoniae MDR ATCC 70063 (CO-ADD:GN_003); MIC in CAMBH media using NBS plates, by OD(600)
Description for Staphylococcus aureus: Antibacterial activity against Staphylococcus aureus MRSA ATCC 43300 (CO-ADD:GP_020); MIC in CAMBH media, using NBS plates, by OD(600)

`CCCCN1C[C@H](O)[C@@H](O)[C@H](O)[C@H]1CO`: the MIC with Escherichia coli, with Pseudomonas aeruginosa [1], in the assay on Candida albicans, against Cryptococcus neoformans, against Pseudomonas aeruginosa [2] and in the assay on Klebsiella pneumoniae was above 20 µM throughout. For the same compound, the MIC against Acinetobacter baumannii and in the assay on Staphylococcus aureus was above 20 µM each time. Also, the CC50 in the assay on HEK293 is above 20 µM.
Consider `O=C(O)/C=C/C=C/c1cccc(Oc2cc(Cl)cc(Cl)c2)c1`, for which the MIC with Escherichia coli, against Pseudomonas aeruginosa [1], in the assay on Candida albicans, in the assay with Cryptococcus neoformans, against Pseudomonas aeruginosa [2] and against Klebsiella pneumoniae was above 20 µM in each case. Besides, the MIC against Acinetobacter baumannii and in the assay with Staphylococcus aureus was above 20 µM throughout. Further, in the assay with HEK293, the CC50 is above 20 µM.
For the compound `Nc1ccc(-c2nc3cc(C(F)(F)F)ccc3n2C23CC4CC(CC(C4)C2)C3)cc1`, the MIC against Escherichia coli, in the assay on Pseudomonas aeruginosa [1], against Candida albicans, in the assay with Cryptococcus neoformans, in the assay on Pseudomonas aeruginosa [2] and against Klebsiella pneumoniae was above 20 µM in each case. The MIC in the assay on Acinetobacter baumannii and against Staphylococcus aureus was above 20 µM each time. Also, the CC50 in the assay on HEK293 is above 20 µM.
As to `CC(C)(C)NC(=O)[C@@H]1C[C@@H]2CCCC[C@@H]2CN1C[C@@H](O)[C@H](Cc1ccccc1)NC(=O)[C@H](CC(N)=O)NC(=O)c1ccc2ccccc2n1`, the MIC in the assay on Escherichia coli, against Pseudomonas aeruginosa [1], with Candida albicans, with Cryptococcus neoformans, in the assay on Pseudomonas aeruginosa [2] and against Klebsiella pneumoniae was above 20 µM throughout. Moreover, the MIC in the assay with Acinetobacter baumannii and against Staphylococcus aureus was above 20 µM in each case. Moreover, the CC50 with HEK293 was above 20 µM.
`COc1ccc(CNC(=O)C2CCN([C@H](C)c3cccc4ccccc34)CC2)cc1`: the MIC in the assay on Escherichia coli, against Pseudomonas aeruginosa [1], with Candida albicans, against Cryptococcus neoformans, against Pseudomonas aeruginosa [2] and against Klebsiella pneumoniae was above 20 µM each time. Moreover, the MIC with Acinetobacter baumannii and in the assay with Staphylococcus aureus was above 20 µM throughout. Besides, the CC50 in the assay with HEK293 was above 20 µM.
For `COc1ccc(OCc2ccc(COc3c(Cl)cccc3Cl)cc2)c(Cl)c1`, the MIC against Escherichia coli, against Pseudomonas aeruginosa [1], against Candida albicans, against Cryptococcus neoformans, against Pseudomonas aeruginosa [2] and in the assay with Klebsiella pneumoniae was above 20 µM each time. Also, the MIC in the assay with Acinetobacter baumannii and in the assay with Staphylococcus aureus was above 20 µM each time. The CC50 in the assay on HEK293 is above 20 µM.
As to `CCN1CCN(Cc2nc3ccc([N+](=O)[O-])cc3c(=O)n2-c2ccccc2F)CC1`, the MIC with Escherichia coli, in the assay on Pseudomonas aeruginosa [1], in the assay with Candida albicans, with Cryptococcus neoformans, against Pseudomonas aeruginosa [2] and in the assay with Klebsiella pneumoniae was above 20 µM throughout. Further, the MIC with Acinetobacter baumannii and with Staphylococcus aureus was above 20 µM throughout. Besides, in the assay with HEK293, the CC50 was above 20 µM.
On to `COc1ccc(-n2cnc3cc(NCc4ccco4)ccc32)cc1`, for which the MIC against Escherichia coli, in the assay on Pseudomonas aeruginosa [1], in the assay on Candida albicans, in the assay on Cryptococcus neoformans, in the assay with Pseudomonas aeruginosa [2] and in the assay on Klebsiella pneumoniae was above 20 µM throughout. For the same compound, the MIC against Acinetobacter baumannii and against Staphylococcus aureus was above 20 µM throughout. Moreover, in the assay on HEK293, the CC50 is above 20 µM.
Consider `COc1cc(NS(=O)(=O)c2ccc(C)cc2)c2ncccc2c1`, for which the MIC against Escherichia coli, in the assay with Pseudomonas aeruginosa [1], with Candida albicans, against Cryptococcus neoformans, in the assay on Pseudomonas aeruginosa [2] and against Klebsiella pneumoniae was above 20 µM each time. Further, the MIC in the assay with Acinetobacter baumannii and against Staphylococcus aureus was above 20 µM in each case. Further, the CC50 in the assay on HEK293 was determined as 5.41 µM.
`O=C(Nc1ccc(N2CCN(C(=O)c3ccccc3)CC2)cc1)c1ccc2c(c1)OCO2`: the MIC in the assay on Escherichia coli, against Pseudomonas aeruginosa [1], against Candida albicans, in the assay on Cryptococcus neoformans, in the assay with Pseudomonas aeruginosa [2] and in the assay on Klebsiella pneumoniae was above 20 µM throughout. In addition, the MIC with Acinetobacter baumannii and in the assay with Staphylococcus aureus was above 20 µM in each case. The CC50 with HEK293 was above 20 µM.
Consider `COCCn1cnc2c(O)nc(Nc3ccccc3)nc21`, for which the MIC against Escherichia coli, against Pseudomonas aeruginosa [1], with Candida albicans, against Cryptococcus neoformans, against Pseudomonas aeruginosa [2] and in the assay on Klebsiella pneumoniae was above 20 µM throughout. Also, the MIC in the assay on Acinetobacter baumannii and against Staphylococcus aureus was above 20 µM each time. Besides, in the assay with HEK293, the 50% cytotoxic concentration (CC50) was above 20 µM.
For `O=C(NCc1ccc(F)cc1)c1c(O)c2ncccc2[nH]c1=O`, the MIC in the assay with Escherichia coli, against Pseudomonas aeruginosa [1], in the assay on Candida albicans, in the assay on Cryptococcus neoformans, against Pseudomonas aeruginosa [2] and in the assay on Klebsiella pneumoniae was above 20 µM each time. In addition, the MIC in the assay on Acinetobacter baumannii and with Staphylococcus aureus was above 20 µM throughout. The cytotoxic concentration (CC50) with HEK293 was above 20 µM.
With `O=C(c1nc2c(C(F)(F)F)cc(C3CC3)cn2c1Cl)N1CCN([C@H]2CC[C@H](O)CC2)C(=O)C1`, the MIC against Escherichia coli, against Pseudomonas aeruginosa [1], against Candida albicans, against Cryptococcus neoformans, with Pseudomonas aeruginosa [2] and in the assay on Klebsiella pneumoniae was above 20 µM in each case. Further, the MIC with Acinetobacter baumannii and against Staphylococcus aureus was above 20 µM throughout. The CC50 in the assay with HEK293 was above 20 µM.
Turning to `CCC[C@H](NC(=O)[C@@H]1[C@H]2CCC[C@H]2CN1C(=O)[C@@H](NC(=O)[C@@H](NC(=O)c1cnccn1)C1CCCCC1)C(C)(C)C)C(=O)C(=O)NC1CC1`, the MIC against Escherichia coli, with Pseudomonas aeruginosa [1], with Candida albicans, in the assay on Cryptococcus neoformans, in the assay with Pseudomonas aeruginosa [2] and against Klebsiella pneumoniae was above 20 µM throughout. Besides, the MIC against Acinetobacter baumannii and against Staphylococcus aureus was above 20 µM in each case. For the same compound, the cytotoxic concentration (CC50) in the assay with HEK293 is above 20 µM.
`CCOc1ccc(/C=N/NC(=O)C2CC2c2ccc(C(C)(C)C)cc2)cc1OCC` (stereo not given): the MIC in the assay on Escherichia coli, in the assay on Pseudomonas aeruginosa [1], against Candida albicans, in the assay on Cryptococcus neoformans, against Pseudomonas aeruginosa [2] and in the assay on Klebsiella pneumoniae was above 20 µM throughout. Further, the MIC against Acinetobacter baumannii and in the assay on Staphylococcus aureus was above 20 µM throughout. The CC50 in the assay on HEK293 was above 20 µM.
With `O=C(O)CSc1cc(NS(=O)(=O)c2cccc3cccnc23)c2ccccc2c1O`, the MIC against Escherichia coli, against Pseudomonas aeruginosa [1], with Candida albicans, in the assay with Cryptococcus neoformans, in the assay on Pseudomonas aeruginosa [2] and against Klebsiella pneumoniae was above 20 µM in each case. Besides, the MIC in the assay with Acinetobacter baumannii and in the assay with Staphylococcus aureus was above 20 µM each time. Also, the CC50 with HEK293 is above 20 µM.
Consider `Nc1nc(-c2ccccc2)nc2[nH]nc(Nc3ccc(C(F)(F)F)cc3)c12`, for which the MIC against Escherichia coli, in the assay with Pseudomonas aeruginosa [1], in the assay on Candida albicans, against Cryptococcus neoformans, in the assay with Pseudomonas aeruginosa [2] and in the assay with Klebsiella pneumoniae was above 20 µM each time. For the same compound, the MIC with Acinetobacter baumannii and in the assay on Staphylococcus aureus was above 20 µM each time. Moreover, in the assay on HEK293, the CC50 is above 20 µM.
Turning to `Cc1c(F)cccc1NC(=O)Nc1ccc(Cl)c(S(=O)(=O)[C@H]2CCCNC2)c1O`, the MIC against Escherichia coli, against Pseudomonas aeruginosa [1], against Candida albicans, against Cryptococcus neoformans, in the assay on Pseudomonas aeruginosa [2] and against Klebsiella pneumoniae was above 20 µM in each case. The MIC in the assay on Acinetobacter baumannii and in the assay on Staphylococcus aureus was above 20 µM throughout. In addition, in the assay with HEK293, the CC50 is 12 µM.
For `C/C(=N\NC(=O)C1CC1c1ccccc1)c1ccc(NC(=O)c2ccco2)cc1` (stereo not given), the MIC against Escherichia coli, in the assay on Pseudomonas aeruginosa [1], in the assay on Candida albicans, against Cryptococcus neoformans, in the assay with Pseudomonas aeruginosa [2] and against Klebsiella pneumoniae was above 20 µM each time. Further, the MIC in the assay with Acinetobacter baumannii and in the assay on Staphylococcus aureus was above 20 µM throughout. Further, the CC50 in the assay with HEK293 is above 20 µM.
Turning to `CC(C)C(=O)N[C@H]1[C@H]([C@H](O)[C@H](O)CO)OC(C(=O)O)=C[C@@H]1N=[N+]=[N-]`, the MIC against Escherichia coli, against Pseudomonas aeruginosa [1], against Candida albicans, against Cryptococcus neoformans, against Pseudomonas aeruginosa [2] and against Klebsiella pneumoniae was above 20 µM throughout. Besides, the MIC with Acinetobacter baumannii and with Staphylococcus aureus was above 20 µM each time. For the same compound, the CC50 with HEK293 is above 20 µM.

The term CC50 denotes the concentration that lowers cell viability or growth by half.
